# Assay results: paper PMC7283271, “ADP binding by the Culex quinquefasciatus mosquito D7 salivary protein enhances blood feeding on mammals” (Nature Communications, 2020)
# How the values were obtained:
# Type in all cases: binding
# [1] = target: T1, CxD7L1 (Culex quinquefasciatus, UniProt A0A1S4K3K8); test: ITC; design: gene D7L1; mature protein, C-terminal 6x-His, HEK293
# Target sequence in this assay (A0A1S4K3K8 17-311 limits assumed): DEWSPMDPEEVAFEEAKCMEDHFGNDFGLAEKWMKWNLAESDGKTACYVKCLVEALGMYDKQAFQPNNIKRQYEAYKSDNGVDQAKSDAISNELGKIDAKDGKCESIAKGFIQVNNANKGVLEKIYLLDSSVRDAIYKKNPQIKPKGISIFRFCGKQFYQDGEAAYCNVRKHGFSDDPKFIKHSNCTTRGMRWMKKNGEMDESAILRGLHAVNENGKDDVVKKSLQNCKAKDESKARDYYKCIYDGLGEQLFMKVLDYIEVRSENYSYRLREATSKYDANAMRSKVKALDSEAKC
# [2] = target: T1, CxD7L1; test: crystal structure ([…] Å) and ITC; design: gene D7L1; mature protein
# Target sequence in this assay (A0A1S4K3K8 17-311): as the sequence (A0A1S4K3K8 17-311 limits assumed) above
# [3] = target: T2, CxD7L2 (Culex quinquefasciatus, UniProt B0X6Z1); test: ITC
# T2 construct: gene D7L2; full-length mature protein, C-terminal 6x-His, HEK293
# T2 sequence (B0X6Z1 21-313 limits assumed): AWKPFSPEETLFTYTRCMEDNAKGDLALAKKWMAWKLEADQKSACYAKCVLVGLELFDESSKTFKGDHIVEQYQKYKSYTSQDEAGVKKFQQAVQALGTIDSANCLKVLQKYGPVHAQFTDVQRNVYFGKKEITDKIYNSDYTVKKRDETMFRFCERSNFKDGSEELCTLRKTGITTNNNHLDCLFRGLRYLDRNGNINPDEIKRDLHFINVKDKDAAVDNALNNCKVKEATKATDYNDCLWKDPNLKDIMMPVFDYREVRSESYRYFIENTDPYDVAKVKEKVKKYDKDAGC
smiles,measurement,setting,value
Nc1ncnc2c1ncn2[C@@H]1O[C@H](CO)[C@@H](O)[C@H]1O [Adenosine],Kd,[1],313 nM
Nc1ncnc2c1ncn2[C@@H]1O[C@H](COP(=O)(O)OP(=O)(O)O)[C@@H](O)[C@H]1O [ADP],Kd,[2],32.7 nM
CNC[C@H](O)c1ccc(O)c(O)c1 [Epinephrine],Kd,[3],226 nM
